According to patent US20260048111A1, “Pharmaceutical Composition, Preparation Method and Use Thereof” (PuGong Biotech (Hangzhou) Co., Ltd., priority 2023, published 2026):
Read-outs that look alike come from different tables or passages of the source.

Experiments:
LLC cells = assay type: in vivo, mouse; settings: for Tumor Inhibition Rate: LLC
Experimental: The LLC cells were cultured in DMEM medium containing […] high-quality fetal bovine serum, in a cell incubator with […] CO2 at 37° C.
The LLC cells (tumor source) in the logarithmic growth phase were collected, and 0.1 mL of cell suspension (containing approximately 1×10^6 cells) was inoculated subcutaneously into the axillary region of the corresponding C57/BL/6 mice.
(§1) On day 1 after tumor cell inoculation, all mice were randomly grouped before drug administration.
(§2) Dosing was performed according to the design of the pharmacological study protocol.
On day 7 and day 9 after tumor cell inoculation, the length (a) and width (b) of the tumor in each group of animals were measured externally. The tumor volume was estimated using the formula: V=0.52×a×b^2.
On day 10 after tumor cell inoculation, the experiment was terminated, and tumors were excised and weighed from each group of animals.
Statistical analysis and tumor inhibition rate calculation were performed as follows: Data were statistically analyzed using GraphPad Prism software. The tumor inhibition rate was calculated based on tumor size or tumor weight using the following formula: Tumor Inhibition Rate (%)=[(Average tumor volume or tumor weight of control group−Average tumor volume or tumor weight of treatment group)/Average tumor volume or tumor weight of control group]×[…].

[1] = system: Mouse Lewis lung carcinoma (LLC) cells; experiment: Anti-tumor efficacy of PGc alone and with anti-mouse PD-1, LLC tumor in C57BL/6 mice (Example 6); assay type: in vivo
Experimental: The LLC cells were cultured in DMEM medium containing 10% high-quality fetal bovine serum (FBS) and maintained in a cell incubator with 5% CO2 at 37° C.
The LLC cells (tumor source) in the logarithmic growth phase were collected, and 0.1 mL of cell suspension (approximately 1×10^6 cells) was inoculated subcutaneously into the axillary region of the corresponding mice.
as §1, §2
On day 10 after tumor cell inoculation, the experiment was terminated, and tumors in each group of animals were excised and weighed.
Statistical Analysis and Tumor Inhibition Rate Calculation was as follows: Data were statistically analyzed using GraphPad Prism software.

`O=P1(N(CCCl)CCCl)NCCCO1` (centres unmarked) [Cyclophosphamide (CTX), Cyclophosphamide] was tested, and the “Tumor Volume (mm^3) X” value (LLC cells; LLC s.c. in C57/BL/6 mice, day 7 after tumor cell inoculation, group mean) was 80.40 mm^3, the “Tumor Volume (mm^3) X” value (LLC cells; LLC s.c. in C57/BL/6 mice, day 9 after tumor cell inoculation, group mean) was 112.89 mm^3 and the “Tumor Weight (g) X” value (LLC cells; LLC s.c. in C57/BL/6 mice, day 10 after tumor cell inoculation, group mean) was 0.13 g. The “Tumor Inhibition Rate” value (LLC cells; day 7 after tumor cell inoculation, from tumor volume vs NS) was 33%, the “Tumor Inhibition Rate” value (LLC cells; day 9 after tumor cell inoculation, from tumor volume vs NS) was 47% and the “Tumor Inhibition Rate” value (LLC cells; day 10 after tumor cell inoculation, from tumor weight vs NS) was 45%. For the same molecule, the “Tumor Weight (g) X ± SD” value ([1]; LLC s.c. in C57BL/6 mice, tumors excised at termination (day 8 in protocol table, day 10 in text)) was 0.03 ± 0.02 g and the “Tumor Inhibition Rate” value ([1]; LLC, from tumor weight vs NS) was 42.80%.
